These results are taken from US20240131199A1, “PH RESPONSIVE CYANINE DYES AND CONJUGATES THEREOF” (BRACCO IMAGING S.P.A., priority 2020, published 2024).

Like-named read-outs stand apart in the source and are kept apart here.

For orientation: pKa means the pH at which an ionisable group is half protonated.

Series [1] is described as follows: pKa of prior-art pH sensitive cyanine dyes (literature). The class given is physicochemical. Particulars: worked out from literature pKa.
For series [2] the following is noted: literature value; cited from earlier work.
Series [3] in a line: pK assessment from absorbance/emission versus pH in phosphate buffers. Type of series: physicochemical. As to conditions: for pKa: phosphate buffers at different pH, inflection point of absorbance vs pH, phosphate buffers, read-out: pKa (by abs). The method, then: From the analysis of the variation of the absorbance and emission with respect to the variation of pH, it was possible to calculate the pKa of the dyes of the invention as the inflection point of the interpolated curve.
All the pH buffers used for the experiment were phosphate based buffers and each pH point has been accurately checked with pH-meter. First the cyanine powder was dissolved in water at ca. 1 mg/mL concentration and then 10 μL of this mother solution were added to 1 ml of phosphate buffers at different pH, previously prepared mixing ortophosphoric acid and sodium hydroxide in the right amount to reach the desired pH. The diluted cyanine buffered solutions were then sampled and transferred into a 96 wells plate (clear for the absorbance measurements and dark for the emission measurements) for the analyses. By plotting for each solution the value of the absorbance at the maximum of the active form, for instance 780 nm for Compound 5, vs. the pH of the solution, a polynomial cubic curve was obtained, whose flex corresponds to the pKa value of the cyanine.

Series [4] is described as follows: Optical characterization (absorbance, excitation and emission spectra, microplate reader). Type of series: physicochemical. As to conditions: phosphate buffer; for Abs. Max. / Em. Max.: maximum of the active form. As to the method: All commercially available reagents used in the synthesis were obtained from Sigma Aldrich and TCI and they were used without further purification. c(RGDfK) was purchased from Apex Bio or Bachem. All the reactions were followed by HPLC (Agilent mod. 1100/1200) and HPLC-MS (Agilent mod. 1260, Quadrupole LC/MSD Mod. 6120) equipped with an absorption detector set at different wavelengths (Column: YMC-Triart Phenyl, 250×4.6 mm/S-5 μm/12 nm). Purifications were performed by flash chromatography on an automated purification system (CombiFlash® Rf+), using pre-packed silica C18 cartridges (Biotage® or Phenomenex) or by preparative HPLC on preparative YMC-Triart Phenyl column. Absorbance, excitation and emission values were assessed in a well plate reader to speed-up the measurements (SPARK).
Optical characterization was performed for each compound with Spark® multimode microplate reader, registering with specific 96-wells plate the absorbance, excitation and emission spectra of the fluorophore buffered in phosphate buffer at several pH, ranging from 3 to 8.
In particular, the absorbance, excitation and emission maxima of representative compounds of formula (I) and conjugates of formula (II) are shown in Table III.

Series [5] is described as follows: Residual fluorescence at different pH relative to pH 3. Type of series: physicochemical. As to conditions: unit assumed; for Em. at pH 5/Em at pH 3: fluorescence at pH 5 relative to maximum at pH 3; for Em. at pH 6/Em at pH 3: fluorescence at pH 6 relative to maximum at pH 3; for Em. at pH 7.5/Em at pH 3: fluorescence at pH 7.5 relative to maximum at pH 3. The method, then:
The ratio of the fluorescence at different pH (5, 6 and 7.5) with respect to the maximum fluorescence collected at pH 3 (highly acidic) was calculated for several representative compounds of the invention and the results are reported in the following Table V. The results were also compared to the values calculated for the non-alkylated Reference Compound A.

As to `CC1(C)C(/C=C/C2=C(c3ccc(C(=O)O)cc3)C(=C/C=C3/Nc4ccc(S(=O)(=O)O)cc4C3(C)C)/CCC2)=Nc2ccc(S(=O)(=O)O)cc21` [B], the “pH at which 95% protonation is achieved” value in series [1] turned out to be 4.2. The pKa in series [2] is 5.2.

With `CC(CC[N+]1=C(/C=C/C2=C(Cl)C(=C/C=C3/Nc4ccc(S(=O)(=O)O)cc4C3(C)C)/CCC2)C(C)(C)c2cc(C(=O)O)ccc21)S(=O)(=O)[O-]` (centres unmarked) [Compound 1], the pKa in series [3] amounted to 6. Also, in series [4], the “Exc. Max.” value stood at 783 nm, the “Abs. Max.” value stood at 784 nm and the “Em. Max.” value is recorded as 804 nm. In series [5], this compound yielded an Em. at pH 5/Em at pH 3 of 104%, an Em. at pH 6/Em at pH 3 of 55% and an Em. at pH 7.5/Em at pH 3 of 9%.

On to `CC(CC[N+]1=C(/C=C/C2=C(Cl)C(=C/C=C3/Nc4ccc(S(=O)(=O)O)cc4C3(C)C)/CCC2)C(C)(C)c2cc(C(=O)NCC(O)C(O)C(O)C(O)CO)ccc21)S(=O)(=O)[O-]` (centres unmarked) [Compound 3], for which, in series [4], the “Exc. Max.” value is given as 780 nm, the “Abs. Max.” value worked out at 782 nm and the “Em. Max.” value came out at 807 nm.

For `CC1(C)C(/C=C/C2=C(c3ccc(C(=O)NCCS(=O)(=O)O)cc3)C(=C/C=C3/Nc4ccc(S(=O)(=O)O)cc4C3(C)C)/CCC2)=[N+](CCCCCC(=O)O)c2ccc(S(=O)(=O)[O-])cc21` [Compound 4], the pKa in series [3] amounted to 6.4.

In the case of `CC1(C)C(/C=C/C2=C(Cl)C(=C/C=C3/Nc4ccc(S(=O)(=O)O)cc4C3(C)C)/CCC2)=[N+](CCCCCC(=O)O)c2ccc(S(=O)(=O)[O-])cc21` [Compound 5], the “pKa (from emission vs pH)” value in series [3] (emission at 804 nm vs pH, second source of data) is recorded as “same value of pKa”. Further, in series [3], the pKa stood at 5.9.

In the case of `CC1(C)C(/C=C/C2=C(Cl)C(=C/C=C3/Nc4ccc(S(=O)(=O)[O-])cc4C3(C)C)/CCC2)=[N+](CCCCCC(=O)O)c2ccc(C(=O)NCC(O)C(O)C(O)C(O)CO)cc21` (centres unmarked) [Compound 6], the pKa in series [3] turned out to be 6.

As for `CC1(C)C(/C=C/C2=C(Cl)C(=C/C=C3/N(CCCCCC(=O)O)c4ccc(C(=O)NCC(O)C(O)C(O)C(O)CO)cc4C3(C)C)/CCC2)=Nc2ccc(C(=O)NCC(O)C(O)C(O)C(O)CO)cc21` (centres unmarked) [Compound 7], the pKa in series [3] was 6.1.

Consider `CC1(C)C(/C=C/C=C/C=C/C=C2/Nc3ccc(S(=O)(=O)O)cc3C2(C)C)=[N+](CCCCCC(=O)O)c2ccc(S(=O)(=O)O)cc21` [Compound 8], for which the pKa in series [3] turned out to be 6. For the same compound, in series [4], the “Exc. Max.” value amounted to 740 nm, the “Abs. Max.” value was found to be 742 nm and the “Em. Max.” value is 777 nm. In addition, in series [5], the Em. at pH 5/Em at pH 3 was 96%, the Em. at pH 6/Em at pH 3 was 66% and the Em. at pH 7.5/Em at pH 3 stood at 10%.

Consider `CC1(C)C(/C=C/C(Cl)=C/C=C2/N(CCCCCC(=O)O)c3ccc4c(S(=O)(=O)O)cc(S(=O)(=O)O)cc4c3C2(C)C)=Nc2ccc3c(S(=O)(=O)O)cc(S(=O)(=O)O)cc3c21` [Compound 9], for which the pKa in series [3] came out at 6.7.

As to `CC1(C)C(/C=C/C2=C(Cl)C(=C/C=C3/Nc4ccc(S(=O)(=O)O)cc4C3(C)C)/CCC2)=[N+](CCCCCC(=O)NCCCCC2NC(=O)[C@@H](Cc3ccccc3)NC(=O)[C@H](CC(=O)O)NC(=O)CNC(=O)[C@H](CCCNC(=N)N)NC2=O)c2ccc(S(=O)(=O)[O-])cc21` (some centres unmarked) [Compound 10], in series [3], the pKa came out at 5.8.

On to `CC1(C)C(/C=C/C2=C(Cl)C(=C/C=C3/Nc4ccc(S(=O)(=O)O)cc4C3(C)C)/CCC2)=[N+](CCCCCC(=O)NCCCCC2NC(=O)[C@@H](Cc3ccccc3)NC(=O)[C@H](CC(=O)O)NC(=O)CNC(=O)[C@H](CCCNC(=N)N)NC2=O)c2ccc(C(=O)NCC(O)C(O)C(O)C(O)CO)cc21` (some centres unmarked) [Compound 11], for which the pKa in series [3] was determined as 6.3.

Turning to `CC1(C)C(/C=C/C2=C(Cl)C(=C/C=C3/Nc4ccc(C(=O)NCC(O)C(O)C(O)C(O)CO)cc4C3(C)C)/CCC2)=[N+](CCCCCC(=O)NCCCCC2NC(=O)[C@@H](Cc3ccccc3)NC(=O)[C@H](CC(=O)O)NC(=O)CNC(=O)[C@H](CCCNC(=N)N)NC2=O)c2ccc(C(=O)NCC(O)C(O)C(O)C(O)CO)cc21` (some centres unmarked) [Compound 12], in series [4], the “Exc. Max.” value was 790 nm, the “Abs. Max.” value worked out at 793 nm and the “Em. Max.” value was 814 nm.

Turning to `CC1(C)C(/C=C/C=C/C=C2/Nc3ccc(S(=O)(=O)O)cc3C2(C)CCCCCC(=O)O)=[N+](CCCCS(=O)(=O)O)c2ccc(S(=O)(=O)O)cc21` (centres unmarked) [CypHer5E], the pKa in series [2] is reported as about 7.3.

Turning to `CC1(C)C(/C=C/C2=C(Cl)C(=C/C=C3/Nc4ccc(S(=O)(=O)O)cc4C3(C)C)/CCC2)=Nc2ccc(S(=O)(=O)O)cc21` [Reference Compound A, reference compound], in series [3], the pKa is 4.6. In series [1], the “pH at which 95% protonation is achieved” value was determined as 3.7. Also, the pKa in series [2] is listed as 4.7. Also, in series [5], the Em. at pH 5/Em at pH 3 worked out at 40%, the Em. at pH 6/Em at pH 3 is 10% and the Em. at pH 7.5/Em at pH 3 was determined as 1%.

In the case of `CC[N+]1=C(/C=C/C=C/C=C2/Nc3ccc(CC(=O)O)cc3C2(C)C)C(C)(C)c2cc(S(=O)(=O)[O-])ccc21` [pentamethine cyanine dye], in series [2], the pKa is given as 7.5.
